The results in this text go back to PMC4595804, “A strategy to discover decoy chemokine ligands with an anti-inflammatory activity” (Scientific Reports, 2015).

Holding throughout (assay type): cell-based
One series deals with T1, CCL22 R80N (Homo sapiens, UniProt O00626, R80N).
T1 construct: codes for the mature CCL17 or CCL22 with an N-terminal thioredoxin-hexahistidin (TRX- (His)6) tag; TRX-(His)6 (N, cleaved yes); made in house; host or cells: E. coli BL21 (DE3)
Nature of the series: Calcium responses induced by chemokine mutant, neutraligand protocol. Conditions: 10 μM compound, 5 nM chemokine; remaining response. The method, then:
(§1) Dye loaded cells were placed in the FlexStation 3 (Molecular Devices). Calcium mobilization was measured at 401 and 475 nm emission fluorescence after excitation at 355 nm. For the primary screening, the ligands (50μl of chemokine mixed with DMSO or test compounds) were added to the cells at 40 s, followed by digitonin addition (50μl) at 100 s to the cells. Molecules were screened at a final concentration of 2μg/ml with 5 nM CCL17 or CCL22. […] Raw fluorescence data (at 401 and 475 nm) were exported and the ratio 401/475 was calculated. The calcium response values (height of peak response over baseline) were determined. Hits were selected by comparing the response amplitude at the time of the chemokine addition ± test compound. The Z’ factor[29] was calculated according to the following equation: Z’ = 1-(3SD+ + 3SD−)/|Ave+ − Ave−|, where SD+ and Ave+ are respectively the standard deviation and the mean value of the positive controls (chemokine + DMSO), while SD− and Ave− are respectively the standard deviation and the mean value of the negative controls (HEPES-BSA (0.1%) mixed with DMSO, or cells mixed with C-021). Hit molecules were confirmed by performing concentration-response curves and their half maximal inhibitory concentration (IC50) values were calculated using the Kaleidagraph software.
(§2) and the denaturated chemokines (disulfite bonds reduced by β-mercaptoethanol). The
(§3) chemokine activity was then, tested in the in vitro assays. […]

In a further series the target is T2, CCL22 D58A (Homo sapiens, UniProt O00626, D58A).
T2 construct: codes for the mature CCL17 or CCL22 with an N-terminal thioredoxin-hexahistidin (TRX- (His)6) tag; TRX-(His)6 (N, cleaved yes); made in house; host or cells: E. coli BL21 (DE3)
T2 sequence (O00626 25-93 D58A): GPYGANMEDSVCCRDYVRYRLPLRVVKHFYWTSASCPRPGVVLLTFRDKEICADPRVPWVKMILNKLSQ
The series is described as above. As to conditions: 10 μM compound, 5 nM chemokine; remaining response. Here is the method:
as §1, §2, §3

The target of another series is T3, CCL22 W55A (Homo sapiens, UniProt O00626, W55A).
T3 construct: codes for the mature CCL17 or CCL22 with an N-terminal thioredoxin-hexahistidin (TRX- (His)6) tag; TRX-(His)6 (N, cleaved yes); made in house; host or cells: E. coli BL21 (DE3)
T3 sequence (O00626 25-93 W55A): as the sequence (O00626 25-93 D58A) above, with W31A, A34D counted along it
The description is as above. As to conditions: 10 μM compound, 5 nM chemokine; remaining response. The method, then: as §1, §2, §3

The target in a further series is T4, CCL22 (Homo sapiens, UniProt O00626).
T4 construct: codes for the mature CCL17 or CCL22 with an N-terminal thioredoxin-hexahistidin (TRX- (His)6) tag; thioredoxin (TRX) (N, cleaved yes); (His)6 (N, cleaved yes); made in house; host or cells: E. coli BL21 (DE3)
T4 sequence (O00626 25-93): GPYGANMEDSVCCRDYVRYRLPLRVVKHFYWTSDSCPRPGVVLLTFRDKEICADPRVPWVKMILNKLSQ
Put plainly: TRIC-r calcium assay, neutraligand protocol: compound preincubated with CCL22, EGFP-CCR4+Gqi5+ HEK cells. As to conditions: for inhibition at 5 µM: compound 5 µM, read-out: Inhibition of CCL22 calcium responses (%). The method, then:
(§4) EGFP-CCR4^+Gqi5^+HEKcells were loaded with fluorescent Ca^2+-indicator Indo-1 AM (5μM, Interchim) for 45 min at 37 °C. […] Cells (100,000 cells/well, 100μl) were seeded in black clear bottom 96-well plates (Greiner), and centrifuged at 250 × g for 5 min.
(§5) Two plates (96-well plates, Greiner) were prepared for the screen: one containing test compounds alone in order to determine their direct agonistic activity, and another one containing test compounds mixed with CCL17 or CCL22 at room temperature for 1 h (neutraligand protocol). The chemokines and test compounds were prepared at a 3× concentration, while digitonin was prepared at a 4× concentration. The CCR4 antagonist, C-021 served as control in the experiment. In the antagonist protocol, compounds were added to the cell plate (one compound per well) and incubated with cells for 30 min at room temperature, while the agonist (CCL17 or CCL22) was added to the ligand plate only.
(§6) Dye loaded cells were placed in the FlexStation 3 (Molecular Devices). […] For the primary screening, the ligands (50μl of chemokine mixed with DMSO or test compounds) were added to the cells at 40 s, followed by digitonin addition (50μl) at 100 s to the cells. Molecules were screened at a final concentration of 2μg/ml with 5 nM CCL17 or CCL22. […] The calcium response values (height of peak response over baseline) were determined. Hits were selected by comparing the response amplitude at the time of the chemokine addition ± test compound. The Z’ factor[29] was calculated according to the following equation: Z’ = 1-(3SD+ + 3SD−)/|Ave+ − Ave−|, where SD+ and Ave+ are respectively the standard deviation and the mean value of the positive controls (chemokine + DMSO), while SD− and Ave− are respectively the standard deviation and the mean value of the negative controls (HEPES-BSA (0.1%) mixed with DMSO, or cells mixed with C-021). Hit molecules were confirmed by performing concentration-response curves and their half maximal inhibitory concentration (IC50) values were calculated using the Kaleidagraph software.

Another series has as its system human monocytes. Put plainly: Cytotoxicity in primary monocytes (Alamar Blue). Conditions: up to 250 μM, 24 h. Here is the method:
the wound closure was determined as the difference between wound width at times 0 and 72h. This experiment was repeated three times.
Human primary monocytes were isolated from buffy coats of healthy human blood donors and seeded in 24-well plates (500,000 cells/ml in 1ml) for COX-1/2 activity or 96-well plates for cell viability experiments.
Cells were seeded in 96 well plates (5,000 cells/well in 200µl) for cytotoxicity testing (Alamar […]
doses). After 24h, cytotoxicity was evaluated in the wells using the Alamar Blue method. NaF (250µg/ml) was used as a control in this experiment.
Cyclooxygenase (COX) activity
COX1 mediated prostaglandin E2 (PGE2) release. Monocytes were treated with arachidonic […]
were then collected for the determination of PGE2 by enzyme immunoassay (EIA) […]
COX2 mediated prostaglandin E2 (PGE2) release. Monocytes were incubated with LPS (10U/ml) for 24h to induce COX2 protein synthesis. After renewal of medium (serum free), […]
before AA treatment. The activity of COX2 was determined by measuring PGE2 (Cayman) in the supernatants by EIA. Aspirin (10µM) and diclofenac (10µM) were used as control

The target of another series is T5, CCL17 (Homo sapiens, UniProt Q92583).
T5 construct: codes for the mature CCL17 or CCL22 with an N-terminal thioredoxin-hexahistidin (TRX- (His)6) tag; thioredoxin (TRX) (N, cleaved yes); (His)6 (N, cleaved yes); made in house; host or cells: E. coli BL21 (DE3)
T5 sequence (Q92583 24-94): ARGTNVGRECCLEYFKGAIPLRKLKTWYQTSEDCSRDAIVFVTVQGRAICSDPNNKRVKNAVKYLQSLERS
Nature of the series: TRIC-r calcium assay, neutraligand protocol: compound preincubated with CCL17, EGFP-CCR4+Gqi5+ HEK cells. The method, then:
as §4, §5, §6

[1] abbreviates: 10 μM compound, 5 nM chemokine, remaining response.

Like-named read-outs stand apart in the source and are kept apart here.

T1 sequence (O00626 25-93 R80N): as the sequence (O00626 25-93 D58A) above, with A34D, R56N counted along it

For orientation: IC50 means the concentration that inhibits the measured activity by half. By inhibition is commonly meant how much of the control response was suppressed. As for `O=C(OCC(O)CO)c1ccccc1O` (stereo not shown) [GPN136, 2,3-dihydroxypropyl 2-hydroxybenzoate], the “calcium response induced by CCL22 R80N preincubated with compound” value on CCL22 R80N amounted to 100.0 ± 3.0%. Also, the “calcium response induced by CCL22 D58A preincubated with compound” value at CCL22 D58A came to 76.0 ± 3.0%. Besides, the “calcium response induced by CCL22 W55A preincubated with compound” value on CCL22 W55A amounted to 46.0 ± 3.0%. Also, the IC50 at CCL22 (5 nM CCL22 preincubated 1 h with compound, 21 °C, read-out: IC50 for CCL22 neutralization (calcium assay)) worked out at 11.6 ± 2.5 µM. Also, the inhibition at 2 µg/mL at CCL22 (HEK293, 2 μg/ml compound preincubated 1 h with 5 nM CCL22, read-out: inhibition of CCL22-induced calcium responses (primary screen)) amounted to 46%. For the same compound, the inhibition at 5 µM at CCL22 (HEK293) was 35 ± 8%; on CCL17 (HEK293, compound 5 µM, read-out: Inhibition of CCL17 calcium responses (%)), 0%. Also, the “cell toxicity on human monocytes (Alamar Blue)” value with human monocytes is recorded as “absence of cell toxicity”. The “inhibition of CCL17-evoked calcium responses (selectivity)” value at CCL17 (10 μM compound, 5 nM CCL17, EGFP-CCR4+ HEK cells) is recorded as “no effect”.
For `CC(C)=CCn1cnc2c1c(=O)n(C)c(=O)n2C` [GPN279, 1,3-dimethyl-7-(3-methylbut-2-enyl)-1H-purine-2,6(3H, 7H)-dione], the “calcium response induced by CCL22 R80N preincubated with compound” value on CCL22 R80N was “neither inhibited WT nor CCL22 mutants”. In addition, on CCL22 D58A, the “calcium response induced by CCL22 D58A preincubated with compound” value is “neither inhibited WT nor CCL22 mutants”. Also, the “calcium response induced by CCL22 W55A preincubated with compound” value on CCL22 W55A is recorded as “neither inhibited WT nor CCL22 mutants”. In addition, the “calcium response induced by WT CCL22 preincubated with compound” value at CCL22 (setting [1]) is on record as “neither inhibited WT nor CCL22 mutants”. Besides, the inhibition at 5 µM on CCL22 (HEK293) was determined as 0%; on CCL17 (HEK293, read-out: Inhibition of CCL17 calcium responses (%)) it was 42 ± 4%. The “cell toxicity on human monocytes (Alamar Blue)” value in the series on human monocytes is “absence of cell toxicity”. On CCL17 (setting [1]), the “calcium response induced by WT CCL17 preincubated with compound” value is given as 56.0 ± 5.0%. In addition, on CCL17 (HEK293, read-out: inhibition of CCL17-evoked calcium responses (selectivity)), the inhibition at 10 µM turned out to be 40%. The inhibition at 2 µg/mL on CCL17 (HEK293, read-out: inhibition of CCL17-induced calcium responses (primary screen)) is 42%.
